Where two headings read alike, the source gives them in different places. One block for each compound: values may come before it.
What was measured:
tNOX from HeLa = target: T1, tNOX from HeLa (Homo sapiens, UniProt Q16206); experiment: Spectrophotometric NADH oxidase assay, NOX activity from the HeLa cell surface; format: biochemical; conditions: for Response of NOX activity from the HeLa cell surface when combined with sulforaphane: sequential additions, preceding or following sulforaphane (FIGS. 7, 8)
T1 construct: The cells were thawed at room temperature, resuspended and incubated at 37° C. for 1 h to release the protein
T1 sequence (Q16206 1-610): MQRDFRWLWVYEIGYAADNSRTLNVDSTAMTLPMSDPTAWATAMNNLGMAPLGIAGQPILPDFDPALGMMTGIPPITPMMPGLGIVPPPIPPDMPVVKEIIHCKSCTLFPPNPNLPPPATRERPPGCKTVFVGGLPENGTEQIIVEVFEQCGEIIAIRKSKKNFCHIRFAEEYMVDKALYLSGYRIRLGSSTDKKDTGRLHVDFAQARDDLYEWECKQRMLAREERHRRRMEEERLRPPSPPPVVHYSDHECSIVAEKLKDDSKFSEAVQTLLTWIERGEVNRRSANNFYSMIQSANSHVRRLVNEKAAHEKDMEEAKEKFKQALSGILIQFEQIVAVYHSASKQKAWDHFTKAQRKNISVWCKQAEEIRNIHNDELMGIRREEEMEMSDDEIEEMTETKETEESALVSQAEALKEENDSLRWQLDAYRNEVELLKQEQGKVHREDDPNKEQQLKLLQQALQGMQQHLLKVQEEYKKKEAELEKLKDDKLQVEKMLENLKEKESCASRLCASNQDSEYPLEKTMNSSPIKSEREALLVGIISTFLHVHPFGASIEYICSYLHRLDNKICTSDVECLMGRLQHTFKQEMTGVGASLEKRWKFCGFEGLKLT
Protocol: HeLa S cells (grown in suspension) were collected by centrifugation and shipped frozen by a commercial supplier (Cellex Biosciences, Minneapolis, Minn.) In 0.1 m sodium acetate, pH 5, in a ratio of 1 mL packed cell volume to 1 mL acetate. The cells were thawed at room temperature, resuspended and incubated at 37° C. for 1 h to release the protein. The cells were removed by centrifugation at 37000 g for 60 min and the cell-free supernatants were refrozen and stored in 1 mL samples at −70° C.

HeLa cells = experiment: Growth of HeLa cells in culture (96-well crystal violet); format: cell-based; conditions: Homo sapiens, 48 and 72 h of treatment (FIG. 6), read-out: EC50 for inhibition of growth of HeLa cells
Protocol: HeLa (ATCC CCL-2) human cervical adenocarcinoma cells were cultured in minimal essential medium (Eagle), with 2 mM L-glutamine and Earle's balanced salt solution adjusted to contain 1.5 g/L sodium bicarbonate, 0.2 mM non-essential amino adds, 1.0 mM sodium pyruvate and supplemented with 10% bovine calf serum (heat-inactivated) plus 50 mg/L gentamycin sulfate (Sigma).
HeLa (5×10^4) or CHO (10^4) cells were distributed into each plate well (Costar tissue culture plate).

[1] = tested on: human mammary cancer (BT-20) cells; experiment: cells; conditions: BT-20, read-out: EC50 for inhibition of growth of BT-20 cells
Protocol: (§1) Growth was determined using a 96-well plate assay as described by Lin et al. (17). HeLa (5×10^4) or CHO (10^4) cells were distributed into each plate well (Costar tissue culture plate). The cells were grown at 37° C. for 24 h after which the substances to be evaluated were added followed by incubation for an additional 48 or 72 h as indicated. Medium was removed and the cells were washed with phosphate-buffered saline and then fixed by addition of […] 2.5% (v/v) glutaraldehyde for 0.5 h followed by a distilled water wash. The cells were stained with […] 1% aqueous crystal violet for 0.5 h, washed exhaustively with distilled water followed by […] 33% (v/v) acetic acid for 5 min. The absorbance was determined at 580 nm using an automated plate reader. Growth was determined according to the formula [(b−c)×100]/(a−c)] where a=absorbance of cells in medium without treatment b=cells in medium with treatment and c=medium alone (background).

[2] = target: tNOX of 4T1 mouse mammary cells (Mus musculus, UniProt Q8R0Z2); experiment: biochemical
Protocol: (§2) NADH oxidase activity was determined as the disappearance of NADH measured at 340 nm in a reaction mixture containing 25 mM Tris-Mes buffer (pH 7.2), 1 mM KCN to inhibit low levels of mitochondrial oxidase activity, and 150 ([…] NADH at 37° C. with temperature control (±0.5°) and stirring (14). Activity was measured using paired Hitachi U3210 spectrophotometers. Assays were initiated by addition of NADH. With plasma membranes and whole cells, assays were for 1 min and were repeated on the same sample every 1.5 min for the time indicated. A millimolar extinction coefficient of 6.22 was used to determine specific activity. Proteins were estimated by the bicinchoninic acid method with bovine serum albumin as standard.

[3] = target: CNOX of non-cancer MCF-10A human mammary epithelia (Homo sapiens, UniProt Q8TC92); conditions: non-cancer cells which lack tNOX (FIG. 4)
Protocol: as §2

[4] = tested on: CNOX activity of soybean plasma membranes; conditions: plasma membranes from dark-grown soybean hypocotyls, lack tNOX (FIG. 5)
Protocol: as §2

non-cancer MCF-10A cells = conditions: compared with cancer cells
Protocol: as §1

Sequence of CNOX of non-cancer MCF-10A human mammary epithelia (Q8TC92 whole entry): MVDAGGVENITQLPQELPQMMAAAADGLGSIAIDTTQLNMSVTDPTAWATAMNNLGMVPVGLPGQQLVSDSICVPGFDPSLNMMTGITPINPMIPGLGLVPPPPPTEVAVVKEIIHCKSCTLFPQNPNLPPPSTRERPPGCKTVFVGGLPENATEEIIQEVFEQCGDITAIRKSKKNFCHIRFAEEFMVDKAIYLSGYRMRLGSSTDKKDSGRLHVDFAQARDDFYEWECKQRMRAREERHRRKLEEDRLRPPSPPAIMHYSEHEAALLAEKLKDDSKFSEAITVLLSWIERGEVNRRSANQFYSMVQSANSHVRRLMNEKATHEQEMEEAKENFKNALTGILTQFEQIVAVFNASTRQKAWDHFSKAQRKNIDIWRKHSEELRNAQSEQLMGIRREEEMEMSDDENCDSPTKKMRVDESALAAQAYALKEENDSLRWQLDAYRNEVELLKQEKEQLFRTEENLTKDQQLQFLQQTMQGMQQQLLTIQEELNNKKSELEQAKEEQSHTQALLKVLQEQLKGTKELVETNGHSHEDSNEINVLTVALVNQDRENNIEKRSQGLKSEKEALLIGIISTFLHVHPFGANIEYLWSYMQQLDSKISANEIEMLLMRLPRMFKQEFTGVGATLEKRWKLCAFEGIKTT
Sequence of tNOX of 4T1 mouse mammary cells (Q8R0Z2 whole entry): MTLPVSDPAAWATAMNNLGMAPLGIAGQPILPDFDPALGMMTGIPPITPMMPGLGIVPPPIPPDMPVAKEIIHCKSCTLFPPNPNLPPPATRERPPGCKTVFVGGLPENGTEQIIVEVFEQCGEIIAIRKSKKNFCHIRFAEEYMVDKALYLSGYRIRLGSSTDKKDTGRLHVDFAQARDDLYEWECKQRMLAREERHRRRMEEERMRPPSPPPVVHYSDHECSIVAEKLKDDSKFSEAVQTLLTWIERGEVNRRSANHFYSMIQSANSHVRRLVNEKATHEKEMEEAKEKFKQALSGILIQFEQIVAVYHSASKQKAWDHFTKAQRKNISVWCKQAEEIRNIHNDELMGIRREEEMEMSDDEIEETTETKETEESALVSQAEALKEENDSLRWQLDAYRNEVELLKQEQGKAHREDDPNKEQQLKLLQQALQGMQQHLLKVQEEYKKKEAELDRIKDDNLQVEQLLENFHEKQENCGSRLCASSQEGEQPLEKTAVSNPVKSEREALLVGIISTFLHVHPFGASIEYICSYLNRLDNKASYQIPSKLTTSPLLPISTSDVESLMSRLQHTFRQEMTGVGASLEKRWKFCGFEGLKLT

Response of NOX activity from the HeLa cell surface when combined with sulforaphane (tNOX from HeLa): beneficial response
Compound: COc1cc(CNC(=O)CCCC/C=C/C(C)C)ccc1O [capsaicin, 8-methyl-N-vanillyl-6-noneamide]

EC50 (HeLa cells): 100 to 1000 µM
EC50 [1]: 100 to 1000 µM
EC50 [2]: ~1000 µM
EC50 (tNOX from HeLa; NOX activity from HeLa cell surface (FIGS. 1 and 2)): ~1000 µM
Effect on CNOX (NOX activity) of MCF-10A human mammary epithelia [3]: unaffected
Effect on CNOX (NOX activity) of MCF-10A human mammary epithelia ([3]; listed as Sulforaphane): does not inhibit
Compound: C[S@@+]([O-])CCCCN=C=S [L-Sulforaphane]
Effect on CNOX activity of soybean plasma membranes [4]: unaffected
Effect on CNOX activity of soybean plasma membranes ([4]; listed as Sulforaphane): does not inhibit
Inhibition of growth of non-cancer MCF-10A cells (non-cancer MCF-10A cells): inhibited to nearly the same extent as the cancer cells

Compound: (−)-epigallocatechin gallate [EGCg]
Response of NOX activity from the HeLa cell surface when combined with sulforaphane (tNOX from HeLa): antagonistic

Response of NOX activity from the HeLa cell surface when combined with sulforaphane (tNOX from HeLa): beneficial response
Compound: COc1cc(CN)ccc1O [vanillylamine]

Source: patent US20080095869A1, “Anticancer Treatment” (priority 2004, published 2008)
